Laboratory results as given in patent EP0366451A2, “The use of oxidized polyamines, especially NN'-Bis-(3-propionaldehyde)-1-4-diaminobutane (sperminedialdehyde) as immunosuppressive agents” (ORTHO PHARMACEUTICAL CORPORATION, priority 1988, dated 1990).

Legend:
[1] = tested on: Human T lymphocytes; assay: PHA driven human T cell proliferation after 1 hour incubation; type: cell-based; conditions: 0.62 x 10⁻² mM, 1 hour at 37°C, washed; Figure 1
Method: Human T & B lymphocytes were incubated separately with different concentrations of spermine dialdehyde in vitro for 1 hour. Cells were washed extensively and set up in a PHA (for T cell) or PWM (B cell) proliferation assay. A graph is depicted wherein percentage of response is plotted as a function of concentration of spermine dialdehyde.
Peripheral blood lymphocytes (PBL) were obtained from the blood of normal donors by using standard Ficoll-Hypaque gradient techniques. The T and non-T cells were separated by standard sheep red blood cell (SRBC) rosetting technique. Briefly, 5 x 10⁶/ml PBL were incubated with 1% neuraminidase-treated SRBC, and rosetted cells were separated from non-rosetted cells in a Ficoll-Hypaque gradient. The rosetted cells were designated as T cells. Purified B lymphocytes were obtained from non-rosetted cells by removal of residual T cells using the Pan T monoclonal antibody OKT 11 and complement.
T cell proliferation: 7 x 10⁴ - 10⁵ human T lymphocytes were cultured in flat bottom microtiter plates (Flow) in the presence of 0.1% PHA-P or 1/64 PWM for 4 days. 3H-thymidine (0.1 MCi/well) was added for the last 6 hours of the culture period. […] Cell associated radioactivity was determined by scintillation counting in an automated counter. All of the results were expressed as % response calculated according to the formula: [formula] […]

[2] = tested on: L1210/CPA cells; assay: L1210/CPA cell proliferation ([3H]-thymidine incorporation); type: cell-based, Murine
Method: Murine lymphocytic leukemia cell lines, L1210/CPA and L1210/0 (als. known as Le/CPA and Le/0) were kindly provided by Dr. F. Struck, Southern Research Institute, Birmingham, AL. Cells were grown in RPMI-1640, supplemented with 10% horse serum, 100 units/ml penicillin and 100 µg/ml streptomycin. The cultures were incubated at 37°C in a humidified atmosphere with 5% CO₂ in air. Bone marrow cells were flushed from femurs of mice with RPMI-1640, using a tuberculin syringe fitted with a 25 gauge meedle. For spleen cells, spleens were removed and passed through a fine wire mesh to get a single homogenous cell suspension. In either case, cells were centrifuged, washed twice and resuspended in the drug exposure medium (see below). Cell viability was determined by trypan blue exclusion and the cell suspension was diluted to the desired concentration.
Murine leukemic cells and bone marrow/spleen cells were treated with SDA (1 x 10^-6 M to 5 x 10⁻⁵ M) in RPMI-1640 or PBS based solution. Wherever mentioned, cells were pretreated with DEAB (10-30 µM) for 30-60 min at 37°C and then exposed to SDA.
For [³H]-thymidine incorporation, drug or vehicle treated bone marrow or spleen cells were plated in RPMI-1640, containing 10% fetal bovine serum, 10 µM β-mercaptoethanol, 25 mM HEPES and 2 mM glutamine. Con-A (4 µg/ml and […]) was used as mitogens for bone marrow and spleen cells. […]

[3] = tested on: splenic T cell; assay: Concanavalin A-stimulated splenic T cell proliferation ([3H]-thymidine incorporation); type: cell-based, Mouse
Method: Splenic cells were treated with various concentrations of SDA or an analogue for 30 min. at 37°C. Cells were washed and cultured in the presence of Concanavalin A for 3 days. [³H] Thymidine 0.1µCi/well was added and cells were harvested after 18-24 hrs.
Mouse spleen cells were cultured for 3 days in flat bottom microtiter relates at 10⁵ cells per well in the presence of […] of Con A. 3H-thymidine (0.1 microcurie/well) was added for the last 4-6 hours of the culture period. Cells were harvested as described above.
For [³H]-thymidine incorporation, drug or vehicle treated bone marrow or spleen cells were plated in RPMI-1640, containing 10% fetal bovine serum, 10 µM β-mercaptoethanol, 25 mM HEPES and 2 mM glutamine. Con-A (4 µg/ml and […]) was used as mitogens for bone marrow and spleen cells. Three days later, [³H]-thymidine (0.2 µCi/well) was added and cells were harvested after 12-18 hrs. L1210/CPA and L1210/0 cells (0.1 - 1 x 10⁵ cells/well were plated in RPMI-1640 containing 10% horse serum. [³H]-thymidine was added after 24 hrs and cells were filtered on GF/B filter paper for scintillation counting.

[4] = tested on: BFU-E and CFU-GM colonies; assay: Hemopoietic colony formation assay; type: cell-based, murine
Method: Hemopoietic colony forming cells were cultured as described in the art by Iscove & Sieber with minor modifications. SDA/DEAB treated or vehicle treated cells were added to murine hemopoietic culture mixture with erythropoietin and conditioned medium (Terry Fox Laboratories, Vancouver, Canada). The mixture was vortexed and 1-2 ml portions (1 x 10⁵ bone marrow cells) were plated in duplicate in 35 mm plastic petri dishes (lux suspension dishes, Flow Laboratories). The culture dishes were incubated in a humidified atmosphere (95% air : 5% CO₂) at 37°C. Colonies were counted on day 8 or 10 for BFU-E, CFU-GM and CFU-mix. Colony types were confirmed with Wright/Giemsa Stain.

[5] = tested on: Swiss Webster mice; assay: Acute toxicity, intraperitoneal; type: in vivo
Method: Two pairs of Swiss Webster mice were injected intraperitoneally at 200 mg and 400 mg/kg respectively and observed for toxic effects. Control groups were injected with control preparation. Two weeks after dosing, animals were necropsied and organs were examined for abnormalities.
Two pairs of Swiss Webster mice were injected intraperitoneally at 200 mg and 400 mg/kg for toxic effects.

## O=CCCNCCCCNCCC=O [SDA, NN′-Bis-(3-propionaldehyde)-1-4-diaminobutane]
[1]
  inhibited T cell proliferation: 85%
[2]; DEAB (20 µM) pretreatment
  effect of DEAB pretreatment on cytotoxicity of SDA: potentiated the cytotoxicitty of SDA
[2]; Mus musculus, L1210, [³H]-thymidine incorporation, read-out: mean IC₅₀
  IC50: 8.3 µM
[3]; 1 hour incubation, Figure 2
  susceptibility of spleen cells to suppression compared with bone marrow cells: much more susceptible to suppression
[3]; DEAB (20 µM)
  effect of addition of DEAB on the potency of SDA: no significant effect
[3]; Mus musculus, T-cell, cells treated 30 min at 37°C, washed, cultured with Concanavalin A for 3 days, Figure 8, read-out: IC₅₀
  IC50: 0.7 µM
[3]; Mus musculus, T-cell, read-out: SDA treatment that abolished Con A-induced murine spleen cell proliferation
  IC100: 8 to 12 µM
[4]; 50 µM
  suppression of BFU-E and CFU-GM colonies: almost total suppression
[4]; SDA 10-25 µM, DEAB pretreatment
  sensitivity of myeloid colony forming cells after DEAB pretreatment: further potentiated the sensitivity
[5]; 200 mg and 400 mg/kg intraperitoneally
  acute signs (squinting and writhing): acutely irritating
[5]; 200 mg/kg intraperitoneally
  toxic effects: no other toxic effect
[5]; 400 mg/kg intraperitoneally
  toxic effects: abdominal or whole body edema for five days
[5]; 400 mg/kg, 14 days after injection
  necropsy findings: a mildly distended abdomen and scab formation at the injection site
[5]; mouse, in vivo, ip
  lethal dose (not lethal up to): > 400 mg/kg
